Tested on: GNS166 cells
Assay: Label-free proteomics differential expression
Type: cell-based, human
Method: Proteomic studies were performed by the Proteomics Facility of the CIC bioGUNE by label-free relative quantification on nLC MS/MS. […] In both approaches, the top 20 enriched terms were plotted and the pathways were clustered using divisive hierarchical clustering based on pairwise Jaccard distances.

## C#CCN(Cc1cc2cc(OCCCN3CCCCC3)ccc2n1S(=O)(=O)c1ccccc1)C(=O)CCCCCCC(=O)NO [DDI]
Protein P60059
  LogFC SC61G_HUMAN: -0.7245
Protein P61619
  Direction S61A1_HUMAN: Down
  LogFC S61A1_HUMAN: -0.5192
Protein P61916 GN=NPC2
  LogFC NPC2_HUMAN: 2.258
Protein P62081
  Direction RS7_HUMAN: Down
  LogFC RS7_HUMAN: -0.4241
Protein P62191
  Direction PRS4_HUMAN: Down
  LogFC PRS4_HUMAN: -0.4147
Protein P62241 GN=RPS8
  LogFC RS8_HUMAN: -0.4178
Protein P62760 GN=VSNL1
  LogFC VISL1_HUMAN: 1.015
Protein P62841 GN=RPS15
  LogFC RS15_HUMAN: -0.6326
Protein P63096 GN=GNAI1
  LogFC GNAI1_HUMAN: 2.584
Protein P63167
  Direction DYL1_HUMAN: Down
  LogFC DYL1_HUMAN: -0.5083
Protein P67809 GN=YBX1
  LogFC YBOX1_HUMAN: -0.6246
Protein P68104
  Direction EF1A1_HUMAN: Down
  LogFC EF1A1_HUMAN: -0.2726
Protein P68431
  Direction H31_HUMAN: Down
  LogFC H31_HUMAN: -4.298
Protein P78344
  Direction IF4G2_HUMAN: Down
  LogFC IF4G2_HUMAN: -0.799
Protein P78347
  Direction GTF2I_HUMAN: Down
  LogFC GTF2I_HUMAN: -2.48
Protein P78504 GN=JAG1
  LogFC JAG1_HUMAN: 1.553
Protein P80404 GN=ABAT
  LogFC GABT_HUMAN: 1.722
Protein P82970 GN=HMGN5
  LogFC HMGN5_HUMAN: 1.669
Protein Q0ZGT2 GN=NEXN
  LogFC NEXN_HUMAN: 1.075
Protein Q2NKX8
  Direction ERC6L_HUMAN: Down
  LogFC ERC6L_HUMAN: -1.52
Protein Q2NL82
  Direction TSR1_HUMAN: Down
  LogFC TSR1_HUMAN: -0.7691
Protein Q2TAL8
  Direction QRIC1_HUMAN: Down
  LogFC QRIC1_HUMAN: -0.7876
Protein Q3YEC7
  Direction RABL6_HUMAN: Down
  LogFC RABL6_HUMAN: -0.9067
Protein Q4VC31 GN=CCDC58
  LogFC CCD58_HUMAN: 2.085
Protein Q5BJD5 GN=TMEM41B
  LogFC TM41B_HUMAN: 1.572
Protein Q5EB52
  Direction MEST_HUMAN: Down
  LogFC MEST_HUMAN: -1.179
Protein Q5J8M3 GN=EMC4
  LogFC EMC4_HUMAN: 0.9113
Protein Q5JVS0 GN=HABP4
  LogFC HABP4_HUMAN: 1.16
Protein Q5K4L6
  Direction S27A3_HUMAN: Down
  LogFC S27A3_HUMAN: -1.576
Protein Q5T440
  Direction CAF17_HUMAN: Down
  LogFC CAF17_HUMAN: -1.623
Protein Q5TBA9 GN=FRY
  LogFC FRY_HUMAN: 0.4095
Protein Q5VV42
  Direction CDKAL_HUMAN: Down
  LogFC CDKAL_HUMAN: -0.9728
Protein Q5VWZ2 GN=LYPLAL1
  LogFC LYPL1_HUMAN: 2.901
Protein Q5VYK3
  Direction ECM29_HUMAN: Down
  LogFC ECM29_HUMAN: -1.336
Protein Q6IN85
  Direction P4R3A_HUMAN: Down
  LogFC P4R3A_HUMAN: -0.9894
Protein Q6NW34
  Direction NEPRO_HUMAN: Down
  LogFC NEPRO_HUMAN: -2.0501
Protein Q6NZI2
  Direction CAVN1_HUMAN: Down
  LogFC CAVN1_HUMAN: -0.9705
Protein Q6P2Q9
  Direction PRP8_HUMAN: Down
  LogFC PRP8_HUMAN: -0.5767
Protein Q6P996 GN=PDXDC1
  LogFC PDXD1_HUMAN: -1.201
Protein Q6PJG2 GN=MIDEAS
  LogFC MDEAS_HUMAN: -1.368
Protein Q6PL24 GN=TMED8
  LogFC TMED8_HUMAN: 1.071
Protein Q6SJ93 GN=FAM111B
  LogFC F111B_HUMAN: 1.175
Protein Q6VMQ6
  Direction MCAF1_HUMAN: Down
  LogFC MCAF1_HUMAN: -0.5577
Protein Q6XZF7
  Direction DNMBP_HUMAN: Down
  LogFC DNMBP_HUMAN: -1.235
Protein Q6YN16 GN=HSDL2
  LogFC HSDL2_HUMAN: 0.7277
Protein Q6ZNB6
  Direction NFXL1_HUMAN: Down
  LogFC NFXL1_HUMAN: -0.9938
Protein Q6ZRP7
  Direction QSOX2_HUMAN: Down
  LogFC QSOX2_HUMAN: -1.536
Protein Q6ZRS2 GN=SRCAP
  LogFC SRCAP_HUMAN: -1.996
Protein Q6ZUT6
  Direction CCD9B_HUMAN: Down
  LogFC CCD9B_HUMAN: -1.697
Protein Q7KZF4 GN=SND1
  LogFC SND1_HUMAN: 0.6224
Protein Q7L0J3 GN=SV2A
  LogFC SV2A_HUMAN: 0.9586
Protein Q7L576
  Direction CYFP1_HUMAN: Down
  LogFC CYFP1_HUMAN: -0.7029
Protein Q7Z3K3
  Direction POGZ_HUMAN: Down
  LogFC POGZ_HUMAN: -1.413
Protein Q7Z3U7 GN=MON2
  LogFC MON2_HUMAN: -0.4314
Protein Q7Z4S6
  Direction KI21A_HUMAN: Down
  LogFC KI21A_HUMAN: -1.343
Protein Q08AD1
  Direction CAMP2_HUMAN: Down
  LogFC CAMP2_HUMAN: -0.4479
Protein Q8IUE6 GN=H2AC21
  LogFC H2A2B_HUMAN: -0.9956
Protein Q8IUF8 GN=RIOX2
  LogFC RIOX2_HUMAN: -1.969
Protein Q8IUR7 GN=ARMC8
  LogFC ARMC8_HUMAN: -2.228
Protein Q8IW35
  Direction CEP97_HUMAN: Down
  LogFC CEP97_HUMAN: -0.4382
Protein Q8IWT6 GN=LRRC8A
  LogFC LRC8A_HUMAN: -0.7869
Protein Q8IX12
  Direction CCAR1_HUMAN: Down
  LogFC CCAR1_HUMAN: -0.6634
Protein Q8IY67
  Direction RAVR1_HUMAN: Down
  LogFC RAVR1_HUMAN: -2.239
Protein Q8IYB5 GN=SMAP1
  LogFC SMAP1_HUMAN: -0.6906
Protein Q8IYM9
  Direction TRI22_HUMAN: Down
  LogFC TRI22_HUMAN: -2.3161
Protein Q8N1G4 GN=LRRC47
  LogFC LRC47_HUMAN: -0.5175
Protein Q8N2W9 GN=PIAS4
  LogFC PIAS4_HUMAN: 0.8535
Protein Q8N3C0
  Direction ASCC3_HUMAN: Down
  LogFC ASCC3_HUMAN: -0.4031
Protein Q8N3F8
  Direction MILK1_HUMAN: Down
  LogFC MILK1_HUMAN: -1.876
Protein Q8N5I4 GN=DHRSX
  LogFC DHRSX_HUMAN: -1.799
Protein Q8N6H7 GN=ARFGAP2
  LogFC ARFG2_HUMAN: -2.652
Protein Q8N6M3 GN=FITM2
  LogFC FITM2_HUMAN: 1.422
Protein Q8N201
  Direction INT1_HUMAN: Down
  LogFC INT1_HUMAN: -1.252
Protein Q8N684
  Direction CPSF7_HUMAN: Down
  LogFC CPSF7_HUMAN: -0.7682
Protein Q8N884
  Direction CGAS_HUMAN: Down
  LogFC CGAS_HUMAN: -1.895
Protein Q8NAV1 GN=PRPF38A
  LogFC PR38A_HUMAN: 1.096

Source: PMC11971462, “Generation and validation of a novel multitarget small molecule in glioblastoma” (Cell Death & Disease, 2025)
